8 compounds from PubChem BioAssay AID1259407 (Chemical Carcinogenesis Research Information System (CCRIS), 2018) can be followed below.

For this data set, the system named is CCRIS mutagenicity, Ames/micronucleus/aberration tests. Nature of the data set: CCRIS mutagenicity studies.
[1] abbreviates: Test System: AMES SALMONELLA TYPHIMURIUM, Strain/Indicator: TA98, Metabolic Activation: NONE, Method: STANDARD PLATE.
[2] abbreviates: Test System: AMES SALMONELLA TYPHIMURIUM, Strain/Indicator: TA100, Metabolic Activation: NONE, Method: STANDARD PLATE.
Setting [3] is: Test System: AMES SALMONELLA TYPHIMURIUM, Strain/Indicator: TA98, Metabolic Activation: NONE, Method: PREINCUBATION
Setting [4] is: Test System: AMES SALMONELLA TYPHIMURIUM, Strain/Indicator: TA100, Metabolic Activation: NONE, Method: PREINCUBATION
Setting [5] is: Test System: AMES SALMONELLA TYPHIMURIUM, Strain/Indicator: TA1535, Metabolic Activation: NONE, Method: PREINCUBATION
The mark [6] stands for this setting: Test System: AMES SALMONELLA TYPHIMURIUM, Strain/Indicator: TA1537, Metabolic Activation: NONE, Method: PREINCUBATION

Each structure is given as a SMILES string. The source made the active and inactive calls. No rule for the calls is given here.

Consider `Cc1cn2c(N=O)c(-c3ccc([N+](=O)[O-])cc3)nc2s1`, for which the mutagenic call is “active; positive” under setting [1]; “active; positive” under setting [2]; “inactive; negative” (Test System: AMES SALMONELLA TYPHIMURIUM, Strain/Indicator: TA1535, Metabolic Activation: NONE, Method: STANDARD PLATE); “inactive; negative” (Test System: AMES SALMONELLA TYPHIMURIUM, Strain/Indicator: TA1537, Metabolic Activation: NONE, Method: STANDARD PLATE); “active; positive” (Test System: AMES SALMONELLA TYPHIMURIUM, Strain/Indicator: TA1538, Metabolic Activation: NONE, Method: STANDARD PLATE).

Consider `CC(Br)C(=O)NC(C)(C)C` (centres undefined), for which the mutagenic call under setting [2] is “inactive; negative”.

Regarding `Cc1cc(O)c(C(C)(C)C)cc1Sc1cc(C(C)(C)C)c(O)cc1C`, the mutagenic call is “inactive; negative” (Test System: AMES SALMONELLA TYPHIMURIUM, Strain/Indicator: TA98, Metabolic Activation: HAMSTER, LIVER, S-9, AROCLOR 1254 (10%), Method: PREINCUBATION); “inactive; negative” under setting [3]; “inactive; negative” under setting [1]; “inactive; negative” (Test System: AMES SALMONELLA TYPHIMURIUM, Strain/Indicator: TA98, Metabolic Activation: RAT, LIVER, S-9, AROCLOR 1254 (10%), Method: PREINCUBATION); “inactive; negative” (Test System: AMES SALMONELLA TYPHIMURIUM, Strain/Indicator: TA98, Metabolic Activation: S-9, Method: STANDARD PLATE); “inactive; negative” (Test System: AMES SALMONELLA TYPHIMURIUM, Strain/Indicator: TA100, Metabolic Activation: HAMSTER, LIVER, S-9, AROCLOR 1254 (10%), Method: PREINCUBATION). The mutagenic call under setting [4] was “inactive; negative”; the mutagenic call under setting [2] is “inactive; negative”; the mutagenic call (Test System: AMES SALMONELLA TYPHIMURIUM, Strain/Indicator: TA100, Metabolic Activation: RAT, LIVER, S-9, AROCLOR 1254 (10%), Method: PREINCUBATION) was “inactive; negative”; the mutagenic call (Test System: AMES SALMONELLA TYPHIMURIUM, Strain/Indicator: TA100, Metabolic Activation: S-9, Method: STANDARD PLATE) was “inactive; negative”; the mutagenic call (Test System: AMES SALMONELLA TYPHIMURIUM, Strain/Indicator: TA1535, Metabolic Activation: HAMSTER, LIVER, S-9, AROCLOR 1254 (10%), Method: PREINCUBATION) is “inactive; negative”; the mutagenic call under setting [5] is “inactive; negative”. The mutagenic call is “inactive; negative” (Test System: AMES SALMONELLA TYPHIMURIUM, Strain/Indicator: TA1535, Metabolic Activation: RAT, LIVER, S-9, AROCLOR 1254 (10%), Method: PREINCUBATION); “inactive; negative” (Test System: AMES SALMONELLA TYPHIMURIUM, Strain/Indicator: TA1537, Metabolic Activation: HAMSTER, LIVER, S-9, AROCLOR 1254 (10%), Method: PREINCUBATION); “inactive; negative” under setting [6]; “inactive; negative” (Test System: AMES SALMONELLA TYPHIMURIUM, Strain/Indicator: TA1537, Metabolic Activation: RAT, LIVER, S-9, AROCLOR 1254 (10%), Method: PREINCUBATION).

For `CC1(C(=O)NCc2ccccc2)CO1` (centres undefined), the mutagenic call is, setting by setting: (Test System: AMES SALMONELLA TYPHIMURIUM, Strain/Indicator: TA100, Metabolic Activation: MOUSE, LIVER, S-9, AROCLOR 1254, Method: STANDARD PLATE) “active; positive”; under setting [2], “active; positive”.

On to `Cc1ccccc1C`, for which the mutagenic call was “inactive; negative” (Test System: AMES SALMONELLA TYPHIMURIUM, Strain/Indicator: TA98, Metabolic Activation: HAMSTER, LIVER, S-9, AROCLOR 1254, Method: PREINCUBATION); “inactive; negative” under setting [3]; “inactive; negative” under setting [1]; “inactive; negative” (Test System: AMES SALMONELLA TYPHIMURIUM, Strain/Indicator: TA98, Metabolic Activation: RAT, LIVER, S-9, AROCLOR 1254, Method: PREINCUBATION); “inactive; negative” (Test System: AMES SALMONELLA TYPHIMURIUM, Strain/Indicator: TA98, Metabolic Activation: RAT, LIVER, S-9, AROCLOR, Method: STANDARD PLATE); “inactive; negative” (Test System: AMES SALMONELLA TYPHIMURIUM, Strain/Indicator: TA100, Metabolic Activation: HAMSTER, LIVER, S-9, AROCLOR 1254, Method: PREINCUBATION). Besides, the mutagenic call reads like this: under setting [4], “inactive; negative”; under setting [2], “inactive; negative”; (Test System: AMES SALMONELLA TYPHIMURIUM, Strain/Indicator: TA100, Metabolic Activation: RAT, LIVER, S-9, AROCLOR 1254, Method: PREINCUBATION) “inactive; negative”; (Test System: AMES SALMONELLA TYPHIMURIUM, Strain/Indicator: TA100, Metabolic Activation: RAT, LIVER, S-9, AROCLOR, Method: STANDARD PLATE) “inactive; negative”; (Test System: AMES SALMONELLA TYPHIMURIUM, Strain/Indicator: TA1535, Metabolic Activation: HAMSTER, LIVER, S-9, AROCLOR 1254, Method: PREINCUBATION) “inactive; negative”; under setting [5], “inactive; negative”. Further, the mutagenic call (Test System: AMES SALMONELLA TYPHIMURIUM, Strain/Indicator: TA1535, Metabolic Activation: RAT, LIVER, S-9, AROCLOR 1254, Method: PREINCUBATION) is “inactive; negative”; the mutagenic call (Test System: AMES SALMONELLA TYPHIMURIUM, Strain/Indicator: TA1537, Metabolic Activation: HAMSTER, LIVER, S-9, AROCLOR 1254, Method: PREINCUBATION) is “inactive; negative”; the mutagenic call under setting [6] was “inactive; negative”; the mutagenic call (Test System: AMES SALMONELLA TYPHIMURIUM, Strain/Indicator: TA1537, Metabolic Activation: RAT, LIVER, S-9, AROCLOR 1254, Method: PREINCUBATION) is “inactive; negative”; the mutagenic call (Test System: AMES SALMONELLA TYPHIMURIUM, Strain/Indicator: UTH8413, Metabolic Activation: NONE, Method: STANDARD PLATE) was “inactive; negative”; the mutagenic call (Test System: AMES SALMONELLA TYPHIMURIUM, Strain/Indicator: UTH8413, Metabolic Activation: RAT, LIVER, S-9, AROCLOR, Method: STANDARD PLATE) is “inactive; negative”. Further, the mutagenic call (Test System: AMES SALMONELLA TYPHIMURIUM, Strain/Indicator: UTH8414, Metabolic Activation: NONE, Method: STANDARD PLATE) was “inactive; negative” and the mutagenic call (Test System: AMES SALMONELLA TYPHIMURIUM, Strain/Indicator: UTH8414, Metabolic Activation: RAT, LIVER, S-9, AROCLOR, Method: STANDARD PLATE) was “inactive; negative”.

Turning to `Cc1ccc2cc3c(c4c2c1CC4)C1OC1c1ccccc1-3` (centres undefined), the mutagenic call was “active; positive” under setting [1]; “active; positive” under setting [2]; “active; positive” (Test System: CHINESE HAMSTER V-79, Strain/Indicator: V-79/8-AZAGUANINE, Metabolic Activation: NONE, Method: STANDARD PLATE).

On to `CC(C)C[C@@H]1NC(=O)[C@H](C)N(C)C(=O)CNC(=O)/C(=C/c2ccccc2)N(C)C1=O`, for which the mutagenic call reads like this: under setting [1], “inactive; negative”; (Test System: AMES SALMONELLA TYPHIMURIUM, Strain/Indicator: TA98, Metabolic Activation: RAT LIVER S-9, AROCLOR 1254, Method: STANDARD PLATE) “inactive; negative”; under setting [2], “inactive; negative”; (Test System: AMES SALMONELLA TYPHIMURIUM, Strain/Indicator: TA100, Metabolic Activation: RAT LIVER S-9, AROCLOR 1254, Method: STANDARD PLATE) “inactive; negative”; (Test System: Ames Salmonella typhimurium, Strain/Indicator: TA97, Metabolic Activation: None, Method: Standard plate) “inactive; negative. nitrosation did not increase mutagenicity”; (Test System: Ames Salmonella typhimurium, Strain/Indicator: TA97, Metabolic Activation: Rat, Liver, S-9, Aroclor 1254 (10%), Method: Standard plate) “inactive; negative. nitrosation did not increase mutagenicity”. Besides, the mutagenic call reads like this: (Test System: Ames Salmonella typhimurium, Strain/Indicator: TA102, Metabolic Activation: None, Method: Standard plate) “inactive; negative. nitrosation did not increase mutagenicity”; (Test System: Ames Salmonella typhimurium, Strain/Indicator: TA102, Metabolic Activation: Rat, Liver, S-9, Aroclor 1254 (10%), Method: Standard plate) “inactive; negative. nitrosation did not increase mutagenicity”; (Test System: Ames Salmonella typhimurium, Strain/Indicator: TA104, Metabolic Activation: None, Method: Standard plate) “inactive; negative. nitrosation did not increase mutagenicity”; (Test System: Ames Salmonella typhimurium, Strain/Indicator: TA104, Metabolic Activation: Rat, Liver, S-9, Aroclor 1254 (10%), Method: Standard plate) “inactive; negative. nitrosation did not increase mutagenicity”.

In the case of `CC(C)(C)Br`, the mutagenic call (Test System: AMES SALMONELLA TYPHIMURIUM, Strain/Indicator: TA100, Metabolic Activation: NONE, Method: DESICCATOR) is “active; positive” and the mutagenic call (Test System: AMES SALMONELLA TYPHIMURIUM, Strain/Indicator: TA100, Metabolic Activation: RAT, LIVER, S-9, AROCLOR 1254, Method: DESICCATOR) was “active; positive”.
